Measured values taken from PMC8880385 (Pharmaceuticals, 2022).

How the values were obtained:
Loa loa mf = experiment: Loa loa microfilariae motility counter-screen; type: cell-based; settings: for inhibition at 10 µM: Loa loa, 120 h, Day 5
Protocol: (§1) To assess the effects of the compounds on O. ochengi mf, the mf were harvested from infected cow skin and cultured (10–15 mf per well) in 100 µL media in 96-well plates with a confluent feeder layer of monkey kidney epithelial cells (MK2) as previously described. […] All compounds were also counter-screened with L. loa mf collected from infected individuals with approval from the University of Buea (IRB approval # 964-19). Mf were separated from blood cells using a Percoll gradient as previously described and set up for assays (10–15 mf per well).

O. volvulus pre-adult L5 [1] = experiment: Ov L5 viability by endpoint MTT assay; type: cell-based, Onchocerca volvulus; settings: 1 µM
Protocol: Briefly, Ov L3 larvae were cultured to the pre-adult/L5 stage in vitro as described by Voronin et al., 2019 [45]. Once larvae reached the L5 stage (after at least 70 days in culture), 8–10 Ov L5 were moved to new transwell inserts in a 24-well plate containing 0.5 mL Ov L4-CMS media seeded with a 3 × 10^4/well Human Umbilical Vein Endothelial Cells (HUVEC) monolayer. Duplicate wells were treated with 1 and/or 10 µM of compound. Ov L5 were exposed to compounds for 14 days (exchanged 50% of media with fresh compound every two days) and then cultured with new media without compound, exchanging 50% of media every 2–3 days, up to day 36. Control Ov L5 were treated with 0.05% DMSO. […] Motility was assessed visually and ranked on a 0–100% scale every 2–3 days over the course of the assay. At the end of the motility assay, Ov L5 viability was measured by 3-(4,5-dimethylthiazol-2-yl)-2,5-diphenyltetrazolium bromide (MTT) assay. Ov L5 were incubated with 0.1% MTT in PBS at 37 °C for 1 h then visually inspected for blue coloration indicating MTT reduction. Worms were considered dead if <50% of the worm was stained blue, and worms were considered alive if >50% of the worm was stained blue.

O. ochengi mf = experiment: O. ochengi microfilariae motility assay; type: cell-based, Onchocerca ochengi; settings: 10 µM; for inhibition at 10 µM: Onchocerca ochengi, 120 h, Day 5
Protocol: as §1

[2] = Gerbil liver microsome stability assay; type: in vitro ADME; settings: for CLint: gerbil liver microsomes; for half-life at 1 µM: pH 7.4, 1 µM compound, 0.5 mg/mL microsomes, read-out: Gerbil Liver Microsome T1/2
Protocol: Microsomal stability was tested using 1 µM of each test compound in a 96-well plate containing 0.5 mg/mL gerbil liver microsomes, 1 mM NADPH and/or UDPGA with alamethicin in a buffer of 100 mM potassium phosphate with 3 mM magnesium chloride at pH 7.4. Verapamil was used as a positive control. Reactions were incubated at 37 °C, and 100% acetonitrile with 0.1% formic acid was added at 0, 15, 30 and 60 min timepoints to stop the reaction. Samples were then separated over a Waters Atlantis T3 dC18 reverse phase HPLC column with 0.1% formic acid in water and 0.1% formic acid in acetonitrile. Samples were analyzed using an AB Sciex API 4000 LC–MS/MS.

O. ochengi adult females = experiment: O. ochengi adult female viability (MTT) assay; type: cell-based; settings: Onchocerca ochengi, 168 h; Day 7, MTT; read-out: O. ochengi Adult Females Inhibition of Survival Day 7 IC50
Text: (§2) As humans are the only hosts for O. volvulus which are unavailable for screening, drug discovery relies on the surrogate filarial parasites Brugia spp. and cattle Onchocerca spp. Prioritized compounds from the Brugia worm screens were further tested with female and male adult O. ochengi as well as O. ochengi and L. loa mf.
(§3) For these assays, O. ochengi adults were extracted from the subcutaneous nodules of infected cow skins purchased from the local slaughterhouse (Douala, Littoral Region, Cameroon) and incubated in 4 mL complete culture media comprised of RPMI-1640 (Sigma-Aldrich), 5% newborn calf serum, 200 units/mL penicillin, 200 μg/mL streptomycin and 2.5 μg/mL amphotericin B (Sigma-Aldrich) in 12-well plates overnight to validate sterility prior to the assays. Four to eight O. ochengi adult masses were treated individually the following day with a serial dilution of each compound, and controls were treated with 1% DMSO. While in culture, the male worms normally egress from the nodules into the surrounding media and thus can be monitored in parallel for motility. The O. ochengi adult masses were incubated at 37 °C with 5% CO2 for the duration of the assay. Male motility within each well was visually scored every day and over 5 days after compound addition, and female viability within the nodules was assessed by MTT after 7 days as previously described. The O. ochengi adult masses containing female worms were individually placed in wells of a 48-well plate with 0.5 mL of 0.5 mg/mL MTT in PBS and incubated at 37 °C for 30 min. […] Prism 4.0 for Windows was used to calculate IC50s.

[3] = system: Brugia pahangi adult females; experiment: In vitro motility assay with adult female Brugia pahangi (Worminator); settings: for IC50 / inhibition at 1 µM: Brugia pahangi, 72 h; for IC50: read-out: Brugia Adult Females Inhibition of Motility Day 3 IC50; for inhibition at 1 µM: read-out: Brugia Adult Females Inhibition of Motility Day 3 @ 1 µM, 1 µM, Day 3
O. volvulus pre-adult L5 [4] = experiment: O. volvulus pre-adult (Ov L5) motility assay; type: cell-based, Onchocerca volvulus; settings: Onchocerca volvulus
Protocol: O. volvulus adult male and female worms, which can only be obtained from infected individuals, are not readily accessible for ex vivo studies. Moreover, since there is no small animal model that can maintain infections by O. volvulus, a recently developed in vitro system was used to evaluate the macrofilaricidal effects on pre-adult worms. All compounds except for 04 were tested in this O. volvulus pre-adult/L5 motility and viability assay.
Briefly, Ov L3 larvae were cultured to the pre-adult/L5 stage in vitro as described by Voronin et al., 2019 [45]. Once larvae reached the L5 stage (after at least 70 days in culture), 8–10 Ov L5 were moved to new transwell inserts in a 24-well plate containing 0.5 mL Ov L4-CMS media seeded with a 3 × 10^4/well Human Umbilical Vein Endothelial Cells (HUVEC) monolayer. Duplicate wells were treated with 1 and/or 10 µM of compound. Ov L5 were exposed to compounds for 14 days (exchanged 50% of media with fresh compound every two days) and then cultured with new media without compound, exchanging 50% of media every 2–3 days, up to day 36. Control Ov L5 were treated with 0.05% DMSO. Concentrations were chosen based on activity in the B. pahangi female motility assay. Motility was assessed visually and ranked on a 0–100% scale every 2–3 days over the course of the assay. At the end of the motility assay, Ov L5 viability was measured by 3-(4,5-dimethylthiazol-2-yl)-2,5-diphenyltetrazolium bromide (MTT) assay. Ov L5 were incubated with 0.1% MTT in PBS at 37 °C for 1 h then visually inspected for blue coloration indicating MTT reduction. Worms were considered dead if <50% of the worm was stained blue, and worms were considered alive if >50% of the worm was stained blue.

in vitro = settings: dog, MDCK-MDR1
Protocol: Permeability assays were conducted using 5 µM of each test compound with digoxin as a control. […] electrical resistance was used to verify the integrity of the MDCK-MDR1 monolayer. After compound addition, plates were incubated at 37 °C with 5% CO2 for 1 h. Samples were analyzed by LC–MS/MS and net flux ratio was calculated using basal-to-apical and apical-to-basal permeability.

O. ochengi adult males = experiment: O. ochengi adult male motility assay; type: cell-based; settings: Onchocerca ochengi, 120 h; for IC50: read-out: O. ochengi Adult Males Inhibition of Motility Day 5 IC50; for inhibition at 10 µM: single concentration 10 µM, read-out: O. ochengi Adult Males Inhibition of Motility Day 5
Text: as §2
as §3, with “min. Female viability was visually rated by the degree of formazan production (live worms have blue coloration) in the female worm within the treated nodule versus control worm masses.” for “min.”

[5] = Day 36 @ 1 µM, 14 days drug then washout

Cc1cc(/C=C/c2ccc3ccccc3[n+]2C)c(C)n1-c1ccccc1.[I-] [Analog 01, 2-[(E)-2-(2,5-dimethyl-1-phenyl-1H-pyrrol-3-yl)ethenyl]-1-methylquinolin-1-ium iodide]
Loa loa Mf Inhibition of Motility Day 5 @ 10 µM (Loa loa mf): completely inhibited
inhibition at 10 µM (Loa loa mf): 100%
O. volvulus L5 % inhibition of viability Day 37 (MTT assay) (O. volvulus pre-adult L5 [1]): 87%
O. ochengi Mf Inhibition of Motility Day 5 @ 10 µM (O. ochengi mf): completely inhibited
inhibition at 10 µM (O. ochengi mf): 100%
CLint [2]: 610.8 µL/min/mg Protein
half-life at 1 µM [2]: 2.3 min
IC50 (O. ochengi adult females): 790 nM
Brugia Adult Females Inhibition of Motility Day 3 @ 1 µM [3]: 99%
IC50 [3]: 8 nM
Brugia Adult Females Inhibition of Motility Day 3 IC50 [3]: sub-micromolar range
inhibition at 1 µM (O. volvulus pre-adult L5 [4]; [5]): > 90%
Papp A→B (in vitro): 0.1 ×10⁻⁶ cm/s
Papp B→A (in vitro): 61.3 ×10⁻⁶ cm/s
IC50 (O. ochengi adult males): 960 nM

Cc1ccc2c(ccc(/C=C/c3cc(C)n(-c4ccccc4)c3C)[n+]2C)c1.[I-] [Analog 02, 2-[(E)-2-(2,5-dimethyl-1-phenyl-1H-pyrrol-3-yl)ethenyl]-1,6-dimethylquinolin-1-ium iodide]
Loa loa Mf Inhibition of Motility Day 5 @ 10 µM (Loa loa mf): completely inhibited
inhibition at 10 µM (Loa loa mf): 100%
O. ochengi Mf Inhibition of Motility Day 5 @ 10 µM (O. ochengi mf): completely inhibited
inhibition at 10 µM (O. ochengi mf): 100%
CLint [2]: 541.8 µL/min/mg Protein
half-life at 1 µM [2]: 2.6 min
IC50 (O. ochengi adult females): 700 nM
Brugia Adult Females Inhibition of Motility Day 3 @ 1 µM [3]: 83%
inhibition at 1 µM [3]: > 70%
IC50 [3]: 1 nM
Brugia Adult Females Inhibition of Motility Day 3 IC50 [3]: sub-micromolar range
inhibition at 1 µM (O. volvulus pre-adult L5 [4]; 384 h, Day 16 @ 1 µM, assay stopped on day 16 (contamination)): 90%
inhibition at 1 µM (O. volvulus pre-adult L5 [4]; [5]): > 90%
Papp A→B (in vitro): 0.1 ×10⁻⁶ cm/s
Papp B→A (in vitro): 51.2 ×10⁻⁶ cm/s
IC50 (O. ochengi adult males): 3080 nM

Cc1nn(-c2ccccc2)c(C)c1/C=C/c1ccc2ccccc2[n+]1C.[I-] [Analog 05, 2-[(E)-2-(3,5-dimethyl-1-phenyl-1H-pyrazol-4-yl)ethenyl]-1-methylquinolin-1-ium iodide]
Loa loa Mf Inhibition of Motility Day 5 @ 10 µM (Loa loa mf): little to no effect
inhibition at 10 µM (Loa loa mf): 38%
O. volvulus L5 % inhibition of viability Day 37 (MTT assay) (O. volvulus pre-adult L5 [1]): 76%
O. ochengi Mf Inhibition of Motility Day 5 @ 10 µM (O. ochengi mf): little to no effect
inhibition at 10 µM (O. ochengi mf): 0%
CLint [2]: 179.88 µL/min/mg Protein
half-life at 1 µM [2]: 7.7 min
Brugia Adult Females Inhibition of Motility Day 3 @ 1 µM [3]: 81%
inhibition at 1 µM [3]: > 70%
IC50 [3]: 405 nM
Brugia Adult Females Inhibition of Motility Day 3 IC50 [3]: sub-micromolar range
inhibition at 1 µM (O. volvulus pre-adult L5 [4]; [5]): > 90%
Papp A→B (in vitro): 0.7 ×10⁻⁶ cm/s
Papp B→A (in vitro): 6.8 ×10⁻⁶ cm/s
inhibition at 10 µM (O. ochengi adult males): 86%

Cc1c(/C=C/c2ccc3ccccc3[n+]2C)cnn1-c1ccccc1.[I-] [Analog 03, 1-methyl-2-[(E)-2-(5-methyl-1-phenyl-1H-pyrazol-4-yl)ethenyl]quinolin-1-ium iodide]
Loa loa Mf Inhibition of Motility Day 5 @ 10 µM (Loa loa mf): little to no effect
inhibition at 10 µM (Loa loa mf): 13%
O. ochengi Mf Inhibition of Motility Day 5 @ 10 µM (O. ochengi mf): little to no effect
inhibition at 10 µM (O. ochengi mf): 0%
CLint [2]: 280.2 µL/min/mg Protein
half-life at 1 µM [2]: 4.9 min
IC50 (O. ochengi adult females): 5180 nM
inhibition at 1 µM [3]: 3%
inhibition at 10 µM (O. volvulus pre-adult L5 [4]; 672 h, Day 28 @ 10 µM): 97%
Papp A→B (in vitro): 1.3 ×10⁻⁶ cm/s
Papp B→A (in vitro): 9.1 ×10⁻⁶ cm/s
IC50 (O. ochengi adult males): 1540 nM

C[n+]1c(/C=C/c2cnn(-c3ccccc3)c2)ccc2ccccc21.[I-] [Analog 04, 1-methyl-2-[(E)-2-(1-phenyl-1H-pyrazol-4-yl)ethenyl]quinolin-1-ium iodide]
Loa loa Mf Inhibition of Motility Day 5 @ 10 µM (Loa loa mf): little to no effect
inhibition at 10 µM (Loa loa mf): 38%
O. ochengi Mf Inhibition of Motility Day 5 @ 10 µM (O. ochengi mf): little to no effect
inhibition at 10 µM (O. ochengi mf): 0%
inhibition at 1 µM [3]: 26%
inhibition at 10 µM (O. ochengi adult males): 100%
